Source: US8551984B2, “Aminopyrimidines as SYK inhibitors” (Merck Sharp & Dohme Corp., priority 2009, dated 2013)

molecular target: recombinant human SYK (GST-hSYK fusion protein) (Homo sapiens, UniProt P43405); assay: biochemical; settings: RHSYK Activity, Table 54A
From the text: Homogeneous Time-Resolved Fluorescence (HTRF) Assay for the Recombinant Human SYK Enzyme:

IC50 [nM]	SMILES
< 100	Cc1cc(Nc2nccc(C(F)(F)F)n2)cc(-c2cnc(C3(O)CCN(C(=O)C(O)C(F)(F)F)CC3)s2)c1 (racemic) [Example 54A-60]

same assay, conditions: Syk IC50, HTRF, recombinant human GST-SYK

IC50 [nM]	SMILES
1	Cc1cc(Nc2nccc(C)n2)cc(-c2cnc([C@@]3(O)CC[C@H](C(=O)O)C(C)(C)C3)s2)c1

same assay, conditions: rhSYK Activity (IC50), recombinant human GST-SYK 5 pM, ATP 25 μM, biotinylated substrate peptide 250 nM, HTRF, 10-dose titration

IC50 [nM]	SMILES
< 100	Cc1cc(Nc2nccc(OC3CCC(O)CC3)n2)cc(-c2cnc(C(C)(O)C(F)(F)F)s2)c1 (mixture of isomers) [Example 96, 4-{[2-({3-methyl-5-[2-(1,1,1-trifluoro-2-hydroxypropan-2-yl)-1,3-thiazol-5-yl]phenyl}amino)-pyrimidin-4-yl]oxy}cyclohexanol]
< 100	Cc1cc(Nc2nccc(C(F)(F)F)n2)cc(-c2cnc([C@@H](O)[C@H](O)c3ccc(C(=O)O)cc3)s2)c1 (relative stereo) [Example 146, 4-{(Cis)-1,2-dihydroxy-2-[5-(3-methyl-5-{[4-(trifluoromethyl)pyrimidin-2-yl]amino}phenyl)-1,3-thiazol-2-yl]ethyl}benzoic acid]
< 100	Cc1cc(Nc2nccc(C(F)(F)F)n2)cc(-c2cnc(C3CCC(C(N)=O)C(C)(C)C3)s2)c1 (single isomer, unassigned) [154(a), 2,2-Dim ethyl-4-[5-(3-methyl-5-{[4-(trifluoromethyl)pyrimidin-2-yl]amino}phenyl)-1,3-thiazol-2-yl]cyclohexanecarboxamide]
< 100	Cc1cc(Nc2nccc(C(F)(F)F)n2)cc(-c2cnc(C3(O)CCNC(=O)CC3O)s2)c1 (single isomer, unassigned) [161(B), [cis]-4,5-dihydroxy-5-[5-(3-methyl-5-{[4-(trifluoromethyl)pyrimidin-2-yl]amino}phenyl)-1,3-thiazol-2-yl]azepan-2-one]
< 100	Cc1cc(Nc2nccc(C(F)(F)F)n2)cc(-c2cnc(C3(O)CCC(=O)NCC3O)s2)c1 (single isomer, unassigned) [161(C), [cis]5,6-dihydroxy-5-[5-(3-methyl-5-{[4-(trifluoromethyl)pyrimidin-2-yl]amino}phenyl)-1,3-thiazol-2-yl]azepan-2-one]

same assay, conditions: rhSYK Activity, Table 10, Formula A

IC50 [nM]	SMILES
< 100	Cc1cc(Nc2nccc(C(C)C)n2)cc(-c2cnc(C3(O)CCNC(=O)CC3)s2)c1 (single isomer, unassigned) [Example 10A-2]

same assay, conditions: rhSYK Activity, Table 33-A

IC50 [nM]	SMILES
< 100	Cc1cc(Nc2ncc(Cl)cn2)cc(-c2cnc(C3(O)CCC(C(=O)O)C(C)(C)C3)s2)c1 (single isomer, unassigned) [Example 33A-43]
100 to 1000	Cc1cc(Nc2ncc(F)cn2)cc(-c2cnc(C3(O)CCC(C(=O)O)C(C)(C)C3)s2)c1 (single isomer, unassigned) [Example 33A-46]
< 100	Cc1cc(Nc2ncc(F)cn2)cc(-c2cnc(C3(O)CCC(C(=O)O)C(C)(C)C3)s2)c1 (single isomer, unassigned) [Example 33A-47]
< 100	COC(=O)C1CCC(O)(c2ncc(-c3cc(CO)cc(Nc4nccc(C(F)(F)F)n4)c3)s2)CC1(C)C (single isomer, unassigned) [Example 33A-50]
< 100	CC1(C)CC(O)(c2ncc(-c3cc(CO)cc(Nc4nccc(C(F)(F)F)n4)c3)s2)CCC1C(=O)O (single isomer, unassigned) [Example 33A-51]
< 100	CC1(C)CC(O)(c2ncc(-c3cc(Nc4nccc(C(F)(F)F)n4)cc(C(F)F)c3)s2)CCC1C(=O)O (single isomer, unassigned) [Example 33A-57]
< 100	CC1(C)CC(O)(c2ncc(-c3cc(F)cc(Nc4nccc(C(F)(F)F)n4)c3)s2)CCC1C(=O)O (single isomer, unassigned) [Example 33A-63]
< 100	CC1(C)CC(O)(c2ncc(-c3cccc(Nc4nccc(C(F)(F)F)n4)c3)s2)CCC1C(=O)O (single isomer, unassigned) [Example 33A-66]
< 100	COc1ccnc(Nc2cc(C)cc(-c3cnc(C4(O)CCC(C(=O)O)C(C)(C)C4)s3)c2)n1 (single isomer, unassigned) [Example 33A-72]

same assay, conditions: rhSYK Activity, Table 45

IC50 [nM]	SMILES
100 to 1000	Cc1cc(Nc2nccc(C(F)(F)F)n2)cc(-c2cnc(C3(O)CCCN(C(=O)OC(C)(C)C)CC3)s2)c1 (single isomer, unassigned) [45-1]
